Laboratory results: patent publication US20260274857A1, “CRYSTAL OF DIHYDROPYRIDINONE DERIVATIVE OR SOLVATE THEREOF” (Shionogi & Co., Ltd., priority 2022, published 2026)

Assays:
Format in all cases: physicochemical
[1] = Solid stability test: storage stability (amount of analogous substance by HPLC, appearance); settings: temperature, temperature and humidity conditions, light irradiation; analogous substance by HPLC and appearance
Method: For the solid stability of the crystal of the compound represented by Formula (I) obtained in Example 1 and the crystal of the compound represented by Formula (II) obtained in Example 16, the chemical stability under temperature, temperature and humidity conditions, and light irradiation was evaluated. The proportion (%) of the analogous substance produced by an HPLC method and the change in appearance were evaluated.
About 10 mg of the crystal was accurately weighed in a 2 mL glass container with a polyethylene stopper. After the glass container was closed, the glass container was stored at 40° C. or 60° C. for 2 weeks, 1 month, 2 months, 3 months, or 6 months. A sample stored at 40° C. is referred to as a 40° C. hermetically sealed product, and a sample stored at 60° C. is referred to as a 60° C. hermetically sealed product. In a state where the glass container was opened, the glass container was stored at a relative humidity of 75±5% at 40° C. or a relative humidity of 89±5% for 2 weeks, 1 month, 2 months, 3 months or 6 months, or in the presence of silica gel at 40° C. for 1 month, 2 months, 3 months or 6 months. A sample stored at 40° C. and a relative humidity of 75±5% or 89±5% is referred to as a 40° C. and 75% relative humidity (also referred to as 40±2° C./75±5% RH) or 40° C. and 89% relative humidity (also referred to as 40±2° C./89% RH) stored product, and a sample stored in the presence of silica gel at 40° C. is referred to as a 40° C. stored product. The −40° C. hermetically sealed product was used as a standard product.
The amount of the analogous substance was measured by an area percentage method by the HPLC method under the following conditions.
HPLC Conditions 1 were used for the crystal and amorphous substance of the compound represented by Formula (I) obtained in Example 1, and HPLC conditions 2 were used for the crystal of the compound represented by Formula (II) obtained in Example 16.
• Detector: ultraviolet absorptiometer (measurement wavelength: 260 nm) • Column: YMC-Triart C18 ExRS, S-1.9 μm, 3.0×100 mm • Column temperature: constant temperature at near 40° C. • Mobile phase A: 0.1% formic acid aqueous solution • Mobile phase B: acetonitrile • Flow rate: about 0.6 mL/min • Injection amount: 3 μL • Sample cooler temperature: about 6° C. • Feed of mobile phase: The mixing ratio of mobile phase A and mobile phase B was changed as shown in Table 18 to control concentration gradient.
Column: Cortecs (2.7 μm 3.0×100 mm)
Column temperature: 40° C.
UV detection wavelength: 254 nm

[2] = Test Example 2: solid stability, 40° C. 89% RH 3 months, amount of analogous substance
Method: The crystal and amorphous substance of the compound represented by Formula (I) obtained in Example 1 were stored (40° C., 89% RH 3M) in a hermetically sealed container at 40° C. and a relative humidity of 89% for 3 months, and subjected to a solid stability test to evaluate the amount of an analogous substance.
The crystal or amorphous substance of the compound represented by Formula (I) obtained in Example 1 was dissolved in an acetonitrile aqueous solution (acetonitrile:water=1:1) to prepare a sample solution to be exactly 500 μg/mL.
The purity and the amount of the analogous substance were measured by an area percentage method under the HPLC conditions 1 described in Test Example 1.
The results of the crystal and amorphous substance of the compound represented by Formula (I) obtained in Example 1 are described in the following table. Impurities detected at a retention time (RT, retention time) of 17.527 minutes indicate an increase amount with respect to a standard product.

[3] = Moisture adsorption/desorption isotherm measurement (DVS); settings: 25° C.
Excerpt: The moisture adsorption/desorption isotherm measurement is a measurement method for measuring the adsorption and desorption behavior of moisture by measuring a weight change in a solid as a measurement target under each relative humidity condition.
As a basic measurement method, based on the dry weight at 0% RH (relative humidity 0%), the relative humidity is increased every 5% or 10%, and after the weight is stabilized at each relative humidity, the amount of adsorbed water can be determined from the weight increase from the reference value. Similarly, the desorption amount of water can be measured by decreasing the relative humidity every 5% or 10% from 100% RH or 95% RH.
By plotting the value of the weight change at each relative humidity, an adsorption/desorption isotherm can be obtained.
Sorption and desorption of adhesion water and crystal water are affected by particle size, crystallinity, crystal habit, and the like, so that the measurement results may slightly change.
The crystals and amorphous substances obtained in each Example were weighed in an aluminum pan, and allowed to stand at 25° C. and a relative humidity of 0%. The measurement was started after the compound was sufficiently dried and the weight was stabilized, and the weight when the relative humidity changed from 0% to 95% by 5% was recorded. Next, the weight when the relative humidity changed from 95% to 0% by 5% was recorded.
Device: DVS Advantage manufactured by Surface Measurement Systems

Which results are given for `Cc1ccc(-n2nc3c(c2NC(=O)CS(C)(=O)=O)C(=O)N[C@@]2(CCOc4cc(F)cc(F)c42)C3)nc1` [crystal of the compound represented by Formula (I) obtained ]?
solid stability (in words) [1]: excellent in solid stability under any conditions; impurities detected at a retention time of 17.527 minutes, increase with respect to standard product (in words) [2]: increase in impurities could be greatly suppressed; difference in water content between 0% RH and 95% RH ([3]; DVS): about 1.4%; Moisture adsorption amount ([3]; relative humidity 0.0%): 0.000%; Moisture desorption amount ([3]; relative humidity 0.0%): 0.063%; Moisture adsorption amount ([3]; relative humidity 5.0%): 0.064%; Moisture desorption amount ([3]; relative humidity 5.0%): 0.153%; Moisture adsorption amount ([3]; relative humidity 10.0%): 0.115%; Moisture desorption amount ([3]; relative humidity 10.0%): 0.230%; Moisture adsorption amount ([3]; relative humidity 15.0%): 0.174%; Moisture desorption amount ([3]; relative humidity 15.0%): 0.316%; Moisture adsorption amount ([3]; relative humidity 20.0%): 0.234%; Moisture desorption amount ([3]; relative humidity 20.0%): 0.395%; Moisture adsorption amount ([3]; relative humidity 25.0%): 0.321%; Moisture desorption amount ([3]; relative humidity 25.0%): 0.509%; Moisture adsorption amount ([3]; relative humidity 30.0%): 0.449%; Moisture desorption amount ([3]; relative humidity 30.0%): 0.638%; Moisture adsorption amount ([3]; relative humidity 35.0%): 0.549%; Moisture desorption amount ([3]; relative humidity 35.0%): 0.740%; Moisture adsorption amount ([3]; relative humidity 40.0%): 0.639%; Moisture desorption amount ([3]; relative humidity 40.0%): 0.830%; Moisture adsorption amount ([3]; relative humidity 45.0%): 0.719%; Moisture desorption amount ([3]; relative humidity 45.0%): 0.917%; Moisture adsorption amount ([3]; relative humidity 50.0%): 0.798%; Moisture desorption amount ([3]; relative humidity 50.0%): 0.989%; Moisture adsorption amount ([3]; relative humidity 55.0%): 0.867%; Moisture desorption amount ([3]; relative humidity 55.0%): 1.052%; Moisture adsorption amount ([3]; relative humidity 60.0%): 0.925%; Moisture desorption amount ([3]; relative humidity 60.0%): 1.113%; Moisture adsorption amount ([3]; relative humidity 65.0%): 1.003%; Moisture desorption amount ([3]; relative humidity 65.0%): 1.179%; Moisture adsorption amount ([3]; relative humidity 70.0%): 1.070%; Moisture desorption amount ([3]; relative humidity 70.0%): 1.237%; Moisture adsorption amount ([3]; relative humidity 75.0%): 1.150%; Moisture desorption amount ([3]; relative humidity 75.0%): 1.288%; Moisture adsorption amount ([3]; relative humidity 80.0%): 1.196%; Moisture desorption amount ([3]; relative humidity 80.0%): 1.314%; Moisture adsorption amount ([3]; relative humidity 85.0%): 1.266%; Moisture desorption amount ([3]; relative humidity 85.0%): 1.369%; Moisture adsorption amount ([3]; relative humidity 90.0%): 1.350%; Moisture desorption amount ([3]; relative humidity 90.0%): 1.407%; Moisture adsorption amount ([3]; relative humidity 95.0%): 1.426%; Moisture desorption amount ([3]; relative humidity 95.0%): 1.426%
